Reference: US10758534B2 (Vertex Pharmaceuticals Incorporated, priority 2014, dated 2020)

Target: T1, F508del (Homo sapiens, UniProt P13569, DEL508-508)
T1 construct: expressed in transfected cells
Experiment: Protocol 1: membrane potential optical assay (FLIPR III, voltage sensing dye), identification of potentiator compounds
Assay type: cell-based
Conditions: Table 3, compounds of Table 1
How it was run: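 NIH 3T3 fibroblasts stably expressing F508del were cultured at 27° C for 24 hrs for temperature correction, then treated with compounds or DMSO and loaded with a voltage-sensing redistribution dye. Forskolin added with a Cl⁻ gradient activated the channel; membrane-potential fluorescence on FLIPR III reported increased gating.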

T1 sequence (P13569 with tags, fused parts or gaps DEL508-508): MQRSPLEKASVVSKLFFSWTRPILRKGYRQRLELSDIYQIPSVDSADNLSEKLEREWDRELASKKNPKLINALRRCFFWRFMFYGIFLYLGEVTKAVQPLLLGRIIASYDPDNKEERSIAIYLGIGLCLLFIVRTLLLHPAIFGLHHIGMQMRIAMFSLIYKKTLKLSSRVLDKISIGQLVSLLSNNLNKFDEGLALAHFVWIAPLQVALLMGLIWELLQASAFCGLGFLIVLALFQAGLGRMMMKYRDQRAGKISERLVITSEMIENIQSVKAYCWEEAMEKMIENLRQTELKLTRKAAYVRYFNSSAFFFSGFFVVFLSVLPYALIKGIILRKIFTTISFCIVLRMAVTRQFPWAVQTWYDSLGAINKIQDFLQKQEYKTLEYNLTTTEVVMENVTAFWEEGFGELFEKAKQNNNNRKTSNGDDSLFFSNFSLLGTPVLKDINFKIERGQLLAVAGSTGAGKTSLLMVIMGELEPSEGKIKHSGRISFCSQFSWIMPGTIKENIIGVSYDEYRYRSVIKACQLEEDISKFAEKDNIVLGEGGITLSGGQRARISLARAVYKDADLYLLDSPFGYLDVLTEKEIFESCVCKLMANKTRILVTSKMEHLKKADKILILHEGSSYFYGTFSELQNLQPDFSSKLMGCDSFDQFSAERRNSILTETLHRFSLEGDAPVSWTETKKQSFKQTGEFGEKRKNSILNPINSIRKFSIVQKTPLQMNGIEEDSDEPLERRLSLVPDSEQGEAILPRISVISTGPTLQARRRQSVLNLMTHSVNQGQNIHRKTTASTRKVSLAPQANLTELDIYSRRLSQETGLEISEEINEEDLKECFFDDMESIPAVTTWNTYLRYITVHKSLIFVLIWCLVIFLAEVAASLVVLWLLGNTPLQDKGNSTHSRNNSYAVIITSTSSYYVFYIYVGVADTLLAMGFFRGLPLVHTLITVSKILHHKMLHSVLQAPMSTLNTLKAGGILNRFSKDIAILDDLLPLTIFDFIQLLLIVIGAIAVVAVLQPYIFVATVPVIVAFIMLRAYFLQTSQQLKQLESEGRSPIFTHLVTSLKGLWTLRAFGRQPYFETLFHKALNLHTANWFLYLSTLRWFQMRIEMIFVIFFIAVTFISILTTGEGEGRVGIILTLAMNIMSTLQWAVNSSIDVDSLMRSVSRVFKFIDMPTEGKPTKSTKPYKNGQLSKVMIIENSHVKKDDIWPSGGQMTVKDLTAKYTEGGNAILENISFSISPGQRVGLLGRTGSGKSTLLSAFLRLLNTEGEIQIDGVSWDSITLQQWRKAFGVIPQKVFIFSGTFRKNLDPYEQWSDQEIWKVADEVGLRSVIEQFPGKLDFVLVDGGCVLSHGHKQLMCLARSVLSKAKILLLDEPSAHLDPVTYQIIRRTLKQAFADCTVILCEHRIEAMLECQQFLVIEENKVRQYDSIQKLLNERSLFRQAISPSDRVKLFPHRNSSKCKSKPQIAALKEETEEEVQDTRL

Compound | EC30
CC(C)COc1cc(F)cc(-c2cnc(C(=O)NS(=O)(=O)c3cccc(N)n3)c(N3C[C@@H](C)CC3(C)C)n2)c1 [Compound 1526, NV [(6-amino-2-pyridyl)sulfonyl]-5-(3-fluoro-5-isobutoxy-phenyl)-3-[(4S)-2,2,4-trimethylpyrrolidin-1-yl]pyrazine-2-carboxamide] | +++ (“+++” means <3 uM)
CC(C)Oc1ccc(-c2ccc(C(=O)NS(=O)(=O)c3cccc(N)n3)c(N3CCC(c4ccccc4)C3)n2)cn1 (stereo not drawn) [Compound 1112, N-[(6-amino-2-pyridyl)sulfonyl]-6-(6-isopropoxy-3-pyridyl)-2-(3-phenylpyrrolidin-1-yl)pyridine-3-carboxamide] | ++ (“++” means between 3 uM and 10 uM)
CCOc1nc(-c2ccc(C(=O)NS(=O)(=O)c3cccc(N)n3)c(N3CC(C)CC3(C)C)n2)ccc1C (stereo not drawn) [Compound 1363, N-[(6-amino-2-pyridyl)sulfonyl]-6-(6-ethoxy-5-methyl-2-pyridyl)-2-(2,2,4-trimethylpyrrolidin-1-yl)pyridine-3-carboxamide] | +++ (“+++” means <3 uM)
COc1ccccc1-c1ccc(C(=O)NS(=O)(=O)c2cccc(N)n2)c(Oc2c(C)cc(C)cc2C)n1 [Compound 1173, N-[(6-amino-2-pyridyl)sulfonyl]-6-(2-methoxyphenyl)-2-(2,4,6-trimethylphenoxy)pyridine-3-carboxamide] | +++ (“+++” means <3 uM)
CCOc1cc(F)cc(-c2ccc(C(=O)NS(=O)(=O)c3cccc(N)n3)c(N3CC(C)CC3(C)C)n2)c1 (stereo not drawn) [Compound 1099, N-[(6-amino-2-pyridyl)sulfonyl]-6-(3-ethoxy-5-fluoro-phenyl)-2-(2,2,4-trimethylpyrrolidin-1-yl)pyridine-3-carboxamide] | +++ (“+++” means <3 uM)
CC(C)COc1cc(F)cc(-c2ccc(C(=O)NS(=O)(=O)c3cccc(N)n3)c(OCC3CCOCC3)n2)c1 [Compound 933, N-[(6-amino-2-pyridyl)sulfonyl]-6-(3-fluoro-5-isobutoxy-phenyl)-2-(tetrahydropyran-4-ylmethoxy)pyridine-3-carboxamide] | +++ (“+++” means <3 uM)
Cc1cc(C)c(Oc2nc(C)ccc2C(=O)NS(=O)(=O)c2cccc(N3CCN(C)CC3)n2)c(C)c1 [Compound 1018, 6-methyl-N-[[6-(4-methylpiperazin-1-yl)-2-pyridyl]sulfonyl]-2-(2,4,6-trimethylphenoxy)pyridine-3-carboxamide] | ++ (“++” means between 3 uM and 10 uM)
COc1ccc(/C=C/c2cnc(N3CC(C)CC3(C)C)c(C(=O)NS(=O)(=O)c3cccc(N)n3)c2)cc1 (stereo not drawn) [Compound 1726, N-[(6-amino-2-pyridyl)sulfonyl]-5-[(E)-2-(4-methoxyphenyl)vinyl]-2-(2,2,4-trimethylpyrrolidin-1-yl)pyridine-3-carboxamide] | +++ (“+++” means <3 uM)
Cc1cc(C)c(CN2C[C@H](c3ccccc3)C[C@H]2C(=O)NS(=O)(=O)c2cccc(N)n2)c(C)c1 [Compound 870, (2S,4S)—N-[(6-amino-2-pyridyl)sulfonyl]-4-phenyl-1-[(2,4,6-trimethylphenyl)methyl]pyrrolidine-2-carboxamide] | ++ (“++” means between 3 uM and 10 uM)
Cc1cc(C)c(Oc2nc(-c3ccc(OC(C)C)nc3)ccc2C(=O)NS(=O)(=O)c2cccc(N)n2)c(C)c1 [Compound 1163, N-[(6-amino-2-pyridyl)sulfonyl]-6-(6-isopropoxy-3-pyridyl)-2-(2,4,6-trimethylphenoxy)pyridine-3-carboxamide] | +++ (“+++” means <3 uM)
C[C@@H]1CN(c2nc(C3CCCCO3)ccc2C(=O)NS(=O)(=O)c2ccccc2)C(C)(C)C1 (stereo partly drawn) [Compound 1868, N-(benzenesulfonyl)-6-tetrahydropyran-2-yl-2-[(4S)-2,2,4-trimethylpyrrolidin-1-yl]pyridine-3-carboxamide] | +++ (“+++” means <3 uM)
CC1CN(c2ncccc2C(=O)NS(=O)(=O)c2cccc(Nc3ccc(N(C)C)cc3)n2)C(C)(C)C1 (stereo not drawn) [Compound 1757, N—[[6-[4-(dimethylamino)anilino]-2-pyridyl]sulfonyl]-2-(2,2,4-trimethylpyrrolidin-1-yl)pyridine-3-carboxamide] | +++ (“+++” means <3 uM)
C[C@@H]1CN(c2nc(C3CCCCO3)ccc2C(=O)NS(=O)(=O)c2ccc[nH]c2=O)C(C)(C)C1 (stereo partly drawn) [Compound 1503, N-[(2-oxo-1H-pyridin-3-yl)sulfonyl]-6-tetrahydropyran-2-yl-2-[(4S)-2,2,4-trimethylpyrrolidin-1-yl]pyridine-3-carboxamide] | ++ (“++” means between 3 uM and 10 uM)
CCOc1ccc(-c2ccc(C(=O)NS(=O)(=O)c3ccc[nH]c3=O)c(Oc3c(C)cc(C)cc3C)n2)cn1 [Compound 932, 6-(6-ethoxy-3-pyridyl)-N-[(2-oxo-1H-pyridin-3-yl)sulfonyl]-2-(2,4,6-trimethylphenoxy)pyridine-3-carboxamide] | + (“+” means greater than 10 uM)
Cc1cc(C)c(Oc2nc(C(C)C(C)C)ccc2C(=O)NS(=O)(=O)c2cccc(N)n2)c(C)c1 (stereo not drawn) [Compound 1486, N-[(6-amino-2-pyridyl)sulfonyl]-6-(1,2-dimethylpropyl)-2-(2,4,6-trimethylphenoxy)pyridine-3-carboxamide] | +++ (“+++” means <3 uM)
Cc1ccc(Oc2nc(-c3cc(F)cc(OC(C)C)c3)ccc2C(=O)NS(=O)(=O)c2cccc(N)n2)c(C)c1 [Compound 1150, N-[(6-amino-2-pyridyl)sulfonyl]-2-(2,4-dimethylphenoxy)-6-(3-fluoro-5-isopropoxy-phenyl)pyridine-3-carboxamide] | +++ (“+++” means <3 uM)
C[C@@H]1CN(c2nc(C3CCOCC3)ccc2C(=O)NS(=O)(=O)c2cccc(N)n2)C(C)(C)C1 [Compound 1595, N-[(6-amino-2-pyridyl)sulfonyl]-6-tetrahydropyran-4-yl-2-[(4S)-2,2,4-trimethylpyrrolidin-1-yl]pyridine-3-carboxamide] | +++ (“+++” means <3 uM)
CC1CN(c2ncccc2C(=O)NS(=O)(=O)c2cccc(OCc3ccc(F)cc3Cl)n2)C(C)(C)C1 (stereo not drawn) [Compound 1899, N—[[6-[(2-chloro-4-fluoro-phenyl)methoxy]-2-pyridyl]sulfonyl]-2-(2,2,4-trimethylpyrrolidin-1-yl)pyridine-3-carboxamide] | +++ (“+++” means <3 uM)
C[C@@H]1CC[C@H](C)N1c1nc(-c2ccc(OCC(C)(C)C)nc2)ccc1C(=O)NS(=O)(=O)c1cccc(N)n1 [Compound 1270, N-[(6-amino-2-pyridyl)sulfonyl]-6-[6-(2,2-dimethylpropoxy)-3-pyridyl]-2-[(2S,5R)-2,5-dimethylpyrrolidin-1-yl]pyridine-3-carboxamide] | +++ (“+++” means <3 uM)
C[C@@H]1CN(c2ncc(F)cc2C(=O)NS(=O)(=O)c2cccc(N)n2)C(C)(C)C1 [Compound 1607, N-[(6-amino-2-pyridyl)sulfonyl]-5-fluoro-2-[(4S)-2,2,4-trimethylpyrrolidin-1-yl]pyridine-3-carboxamide] | ++ (“++” means between 3 uM and 10 uM)
CC(C)Oc1ccc(-c2ccc(C(=O)NS(=O)(=O)c3cccc(N)n3)c(N3CC(C)(C)CC3(C)C)n2)cn1 [Compound 915, N-[(6-amino-2-pyridyl)sulfonyl]-6-(6-isopropoxy-3-pyridyl)-2-(2,2,4,4-tetramethylpyrrolidin-1-yl)pyridine-3-carboxamide] | +++ (“+++” means <3 uM)
